Test results: publication PMC7190722, “Brain distribution of geissoschizine methyl ether in rats using mass spectrometry imaging analysis” (Scientific Reports, 2020)
Where “and” joins values, the source holds several entries; their conditions need not be identical. Identical values can stand only once.

Columns and labels:
[1] = design: method as in PMID 21442303; conditions: cultured cells; cited from earlier work
[2] = Plasma concentrations of GM and HM-1/2 by LC-MS/MS after intravenous GM injection; format: in vivo, rat
Method: GM (5 mg/kg) or vehicle (70% DMSO; 0.6 mL/kg) was injected into the tail vein of rats fasted for approximately 16 h. […] Blood samples were centrifuged at 1,700 × g and 4 °C for 15 min to obtain the plasma. The brain of each animal was immediately removed and weighed after blood collection and frozen with liquid nitrogen. On the day of analysis, frozen plasma from GM-treated rats was thawed at room temperature, and 25 µL of the plasma was mixed with equal volumes of methanol and an IS vincamine (1 ng/mL) and 150 μL of ethyl acetate. To prepare the calibration curve, blank plasma and various concentrations of working solution (final plasma concentration: 0.08–2 µg/mL) were used instead of methanol and GM-treated plasma. The mixture was centrifuged at 7,000 × g and 4 °C for 5 min. The supernatant was dried under a stream of nitrogen gas. The dried residue was dissolved in 60 μL of the initial mobile phase of LC, and then, a 5-μL aliquot was injected into the LC-MS/MS system composed of an Agilent 1290 LC (Agilent Technologies, Santa Clara, CA, USA) and a TripleQuad6500 MS/MS (SCIEX, Framingham, MA, USA) for measuring GM and its hydroxylated forms. The analytical conditions for LC-MS/MS were set according to previously reported methods with minor modifications[10],[15]. The protonated ions ([M + H]^+) of GM (m/z 367.0), HM-1/2 isomers (m/z 383.3), and vincamine (m/z 355.3) in Q1 (the first MS) or their specific fragment ions (GM: m/z 144.1, HM-1/2 isomers: m/z 160.2, vincamine: m/z 337.1) in Q3 (the second MS) were selected and detected by SRM using positive ion mode. Although a qualifier ion was not monitored in their analysis, the specificities of GM, HM-1/2 and vincamine in rat plasma were already confirmed by previous studies[10],[14]. The calibration curve for quantification of plasma GM concentrations was prepared using Analyst software (version 1.6.2, AB SCIEX). The plasma concentrations of HM-1/2 were expressed as relative peak area ratios of vincamine (IS) because there are currently no standard products for measuring these compounds.

[3] = Brain distribution by DESI-MSI analysis after intravenous GM injection; format: in vivo, rat; conditions: for concentration at 0.25 h: rat, intravenous, 5 mg/kg
Method: GM (5 mg/kg) or vehicle (70% DMSO; 0.6 mL/kg) was injected into the tail vein of rats fasted for approximately 16 h. […] Blood samples were centrifuged at 1,700 × g and 4 °C for 15 min to obtain the plasma. The brain of each animal was immediately removed and weighed after blood collection and frozen with liquid nitrogen. The frozen brains were used for making serial sagittal thin sliced sections (thickness 25 μm, coordinate: approximately 3.4 mm lateral from the bregma) using a […][…] cryostat (Leica Microsystems, […], Germany). Some of the serial sections mounted on conventional glass slides were used for H&E staining to confirm the location of the brain region in the slice. In MALDI-MSI analysis, some sections were mounted on indium tin oxide-coated slides ([…]., Osaka, Japan) based on previous reports[35],[36] to obtain higher sensitivity. In […] analysis, some sections were mounted on conventional glass slides. These tissue sections mounted on the slides were dried in a desiccator at room temperature for 10 min for MALDI-MSI analysis or 1 h for […] analysis. In the […] analysis, the MS/MS analysis was further performed to identify the signals of GM or its hydroxylated metabolite. The MS and MS/MS analyses for […] were performed using a Xevo G2-XS Q-Tof system (Waters, Milford, MA, USA) with an Omni Spray Ion Source 2-D (Prosolia, Indianapolis, IN, USA). In both analyses, methanol/water (98:2)solution was flowed into a capillary at a 2 μL/min flow rate. The nebulizing gas pressure was set to 0.4 MPa, the capillary voltage to 5 kV, the source temperature to 100 °C, the sampling cone to 30 V, and the scan time to 0.986 sec. In the MS analysis, the collision energy was set to 4 eV, and mass spectra were acquired in target enhancement mode, which was set to m/z 367.2. In the MS/MS analysis, the collision energy was set to 20 eV, and mass spectra were acquired in target enhancement mode, which was set to m/z 144.2. Mass resolution and spatial resolution were >20,000 and 200 μm in the MS and MS/MS analyses. The protonated ions of GM ([M + H]^+: m/z 367.2) and HM ([M + H]^+: m/z 383.2) in MS and the specific fragment ions of GM (m/z 144.2) and HM (m/z 160.2) in MS/MS were detected in positive ion mode. The intensities of GM and HM detected in the DESI-MS analysis were visualized using high-definition imaging (HDI) software (Waters, Milford, MA, USA). Normal intact brains were homogenized without adding a solvent using a T-10 basic Ultra-Turrax homogenizer (IKA, Staufen, Germany) to prepare a tissue-based calibration curve for quantifying GM. For brain homogenates, various concentrations of standard GM solution (final concentration: 6.25, 12.5, and 25.0 μg/g brain) or vehicle (methanol) as a control were added and rapidly frozen. Frozen sections (thickness 25 μm) of the homogenates spiked with standard GM were made using a […][…] cryostat (Leica Microsystems). Regional intensities of GM (m/z 367.2) and a standard endogenous molecule (m/z 366.95) in brain tissue slices and homogenate slices were evaluated by the region of interest analysis using HDI software (Waters). The GM signal intensity was expressed as the average of the relative intensity ratio to the standard endogenous molecule per […] contained in the region of interest. The regional brain concentration of GM was calculated using the tissue-based calibration curve (Fig. 3D-2).

[4] = design: method as in PMID 23813572, PMID 30741064; conditions: plasma and brain, after oral YKS administration to rats; cited from earlier work
[5] = Brain distribution by MALDI-MSI analysis after intravenous GM injection; format: in vivo, rat; conditions: 0.25 h after 5 mg/kg GM i.v., sagittal sections
Method: GM (5 mg/kg) or vehicle (70% DMSO; 0.6 mL/kg) was injected into the tail vein of rats fasted for approximately 16 h. […] Blood samples were centrifuged at 1,700 × g and 4 °C for 15 min to obtain the plasma. The brain of each animal was immediately removed and weighed after blood collection and frozen with liquid nitrogen.
The frozen brains were used for making serial sagittal thin sliced sections (thickness 25 μm, coordinate: approximately 3.4 mm lateral from the bregma) using a Leica CM3050S cryostat (Leica Microsystems, Wetzlar, Germany). Some of the serial sections mounted on conventional glass slides were used for H&E staining to confirm the location of the brain region in the slice. […]
The MALDI-MSI analysis was performed on brain slice specimens sprayed with a matrix solution (40 mg/mL 2,5-dihydroxybenzoic acid) dissolved in 50% methanol using a TM-sprayer (HTX Technologies, Chapel Hill, NC, USA). […] The targeted protonated molecule GM ([M + H]^+: m/z 367.2) was detected in positive ion mode under a laser power setting of 70%, 500 laser shots, and the continuous accumulation of selected ions mode set to ON at m/z 360 ± 50. […] GM intensity detected by the MALDI-MS analysis was visualized using FlexImaging software (Bruker Daltonics).

normal rat brain slices = test system: normal rat brain slices; design: method as in PMID 25456433, PMID 28377723; conditions: [^3H]GM directly exposed to normal rat brain slices; cited from earlier work
[6] = Amygdala, 0.25 h, individual animals
[7] = Cerebellum, 0.25 h, individual animals
[8] = Fourth ventricle, 0.25 h, individual animals
[9] = Frontal lobe, 0.25 h, individual animals
[10] = Hippocampus, 0.25 h, individual animals
[11] = Lateral ventricle, 0.25 h, individual animals
[12] = Occipital lobe, 0.25 h, individual animals
[13] = Striatum, 0.25 h, individual animals
[14] = Thalamus, 0.25 h, individual animals

Compound: CC=C1CN2CCc3c([nH]c4ccccc34)C2CC1C(=COC)C(=O)OC (stereo not shown) [GM, Geissoschizine methyl ether]
- BBB permeability [1]: comparatively high
- time course of plasma GM concentration ([2]; 0.25-4 h after 5 mg/kg GM i.v., rat): rapidly decreased in a time-dependent manner over 4 h
- plasma concentration relative to maximum concentration after oral YKS ([2]; 0.25 h after 5 mg/kg GM i.v. vs maximum concentration 1 h after oral 1 g/kg YKS): approximately 500 times
- distribution volume ([2]; one-compartment analysis, 5 mg/kg GM i.v., rat): 4.4 L/kg
- concentration at 0.25 h ([2]; plasma, iv, 0.25 h postinjection, 5 mg/kg GM i.v., rat): 1.07 µg/mL
- half-life ([2]; plasma, iv, one-compartment analysis, 5 mg/kg GM i.v., rat, read-out: apparent elimination half-life (converted)): 1.8 h
- k el ([2]; plasma, iv, one-compartment analysis, 5 mg/kg GM i.v., rat, read-out: elimination rate constant (converted)): 0.000111 s⁻¹
- clearance ([2]; plasma, iv, one-compartment analysis, 5 mg/kg GM i.v., rat, read-out: total clearance (converted)): 1.7 L/h/kg
- GM ion signal in brain, DESI-MSI image ([3]; 0.25 h after 5 mg/kg GM i.v., sagittal sections): a diffuse GM ion signal was observed throughout the brain parenchyma
- Calculated GM concentration [3, 6]: 1.0 µg/g and 2.2 µg/g and 1.2 µg/g
- Ion intensity of GM per pixel in ROI [3, 6]: 2.4 ×10^4 and 3.7 ×10^4 and 9.7 ×10^4
- Ratio of GM/endogenous standard molecule [3, 6]: 0.8 and 1.8 and 1.0
- Calculated GM concentration [3, 7]: 0.8 µg/g and 2.0 µg/g and 1.1 µg/g
- Ion intensity of GM per pixel in ROI [3, 7]: 4.2 ×10^4 and 2.4 ×10^4 and 8.7 ×10^4
- Ratio of GM/endogenous standard molecule [3, 7]: 0.7 and 1.7 and 0.9
- GM intensity in the parenchyma ([3]; DESI-MSI, 1 and 4 h after 5 mg/kg GM i.v.): almost disappeared
- intracerebroventricular GM intensity ([3]; DESI-MSI, 0.25 h, also detected at 1 and 4 h): higher than the intensity in other parenchymal areas
- Calculated GM concentration [3, 8]: 2.3 µg/g and 2.0 µg/g
- Ion intensity of GM per pixel in ROI [3, 8]: 4.0 ×10^4 and 3.9 ×10^4 and 26.5 ×10^4
- Ratio of GM/endogenous standard molecule [3, 8]: 1.0 and 1.9 and 1.7
- Calculated GM concentration [3, 9]: 1.0 µg/g and 2.6 µg/g and 1.2 µg/g
- Ion intensity of GM per pixel in ROI [3, 9]: 2.9 ×10^4 and 5.4 ×10^4 and 9.1 ×10^4
- Ratio of GM/endogenous standard molecule [3, 9]: 0.8 and 2.2 and 1.0
- Calculated GM concentration [3, 10]: 2.3 µg/g and 1.1 µg/g and 0.8 µg/g
- Ion intensity of GM per pixel in ROI [3, 10]: 4.7 ×10^4 and 10 ×10^4 and 2.0 ×10^4
- Ratio of GM/endogenous standard molecule [3, 10]: 1.9 and 0.9 and 0.7
- Calculated GM concentration [3, 11]: 1.4 µg/g and 4.5 µg/g and 2.9 µg/g
- Ion intensity of GM per pixel in ROI [3, 11]: 3.0 ×10^4 and 8.3 ×10^4 and 21.2 ×10^4
- Ratio of GM/endogenous standard molecule [3, 11]: 1.2 and 3.8 and 2.4
- Calculated GM concentration [3, 12]: 1.1 µg/g and 2.7 µg/g and 1.3 µg/g
- Ion intensity of GM per pixel in ROI [3, 12]: 2.9 ×10^4 and 4.8 ×10^4 and 10.5 ×10^4
- Ratio of GM/endogenous standard molecule [3, 12]: 0.9 and 2.3 and 1.1
- Calculated GM concentration [3, 13]: 0.8 µg/g and 2.6 µg/g and 1.1 µg/g
- Ion intensity of GM per pixel in ROI [3, 13]: 1.9 ×10^4 and 3.9 ×10^4 and 7.2 ×10^4
- Ratio of GM/endogenous standard molecule [3, 13]: 0.7 and 2.2 and 0.9
- Calculated GM concentration [3, 14]: 0.7 µg/g and 2.4 µg/g and 1.1 µg/g
- Ion intensity of GM per pixel in ROI [3, 14]: 1.7 ×10^4 and 4.5 ×10^4 and 8.8 ×10^4
- Ratio of GM/endogenous standard molecule [3, 14]: 0.6 and 2.0 and 0.9
- concentration at 0.25 h ([3]; brain (fourth ventricle), Fourth ventricle, 0.25 h, individual animals, read-out: Calculated GM concentration): 1200 ng/g
- concentration at 0.25 h ([3]; 0.25 h after 5 mg/kg GM i.v., cerebral cortex, hippocampus, striatum, amygdala, thalamus, cerebellum, lateral ventricle, read-out: regional brain GM concentration range): 1300 to 2900 ng/g
- tmax [4]: 0.5 h
- GM ion signal in brain, MALDI-MSI image [5]: a diffuse GM ion signal was observed throughout the brain parenchyma
- binding to brain slices (normal rat brain slices): specifically bound to various regions appearing on the surface of brain slices
